Measured values from US6635459B1, “Nucleotide sequences encoding pinoresinol/lariciresinol reductase proteins and their methods of use” (Washington State University Research Foundation, priority 1996, dated 2003).

Legend:
HIV = conditions: cited from earlier work
E-coniferyl alcohol [1] = assay: Kinetic characterization of conversion of E-coniferyl alcohol to (+)-pinoresinol with dirigent protein and oxidase/oxidant; format: biochemical, Forsythia intermedia; conditions: (+)-pinoresinol formation from E-coniferyl alcohol, dirigent protein 770 pmol ml^−1 alone or with Fraction III 12 μg protein ml^−1, laccase 2.07 pmol ml^−1, FMN 0.5 μmol ml^−1
Experimental: Assays were carried out as described in Example 3 by incubating a series of E-[9-^3H]coniferyl alcohol concentrations (between 8.00 and 0.13 μmol ml^−1, 7.3 MBq mole literl) with dirigent protein (770 pmol ml^−1) alone and in presence of Forsythia laccase (2.1 pmol ml^−1), fraction III (12 μg protein ml^−1), or FMN (0.5 μmol ml^−1). Assays with dirigent protein, in presence or absence of FMN, were incubated at 30° C. for 1 hour, whereas assays with Forsythia laccase or fraction III in presence or absence of dirigent protein were incubated at 30° C. for 15 min. If free-radical capture by the dirigent protein is the operative mechanism, the Michaelis-Menten parameters obtained will only represent formal rather than true values, because the highest free-energy intermediate state during the conversion of E-coniferyl alcohol into (+)-pinoresinol is still unknown and the relation between the concentration of substrate and that of the corresponding intermediate free-radical in open solution has not been delineated.
Bearing these qualifications in mind, we estimated formal Km and Vmax values for the dirigent protein preparation.

E-sinapyl alcohol = E-sinapyl alcohol coupling assay (oxidant with/without dirigent protein); format: biochemical, Forsythia intermedia; conditions: FMN 0.5 μmol ml^−1 or ammonium peroxydisulfate 10 μmol ml^−1, 6 hour assay
Experimental: Investigation of Substrate-Specific Stereoselectivity. The coupling stereoselectivity was substrate specific. Neither E-p-[9-^3H]coumaryl (4 μmol ml^−1, 44.5 kBq) or E-[8-^14C]sinapyl alcohols (4 μmol ml^−1, 8.3 kBq), which differ from E-coniferyl alcohol only by a methoxyl group substituent on the aromatic ring, yielded stereoselective products when incubated for 6 hours with FMN and ammonium peroxydisulfate respectively, in the presence and absence of the dirigent protein. Incubations were carried out as described above with the following modifications: E-p-[9-^3H]coumaryl (4 μmol ml^−1, 44.5 kBq) or E-[8-^14C]sinapyl alcohols (4 μmol ml^−1, 8.3 kBq) were used as substrates and, after 6 hour incubation at 30° C., the reaction mixture was extracted with EtOAc but without addition of radiochemical carriers.

E-coniferyl alcohol [2] = assay: E-coniferyl alcohol coupling assay (oxidant with/without dirigent protein); format: biochemical, Forsythia intermedia; conditions: 6 hour assay
Experimental: E-coniferyl alcohol coupling assay. E-[9-^3H]Coniferyl alcohol (4 μmol ml^−1, 29.3 kBq) was incubated with a 120-kD laccase (previously purified from Forsythia intermedia stem tissue) over a […], in the presence and absence of the dirigent protein, as follows. Each assay consisted of E-[9-^3H]coniferyl alcohol (4 μmol ml^−1, 29.3 kBq, 7.3 MBq mole liter^−1; or 2 μmol ml^−1, 14.7 kBq with fraction III), the 78-kD dirigent protein, an oxidase or oxidant, or both [final concentrations: 770 pmol ml^−1 dirigent protein; 10.7 pmol protein ml^−1 Forsythia laccase; 12 μg protein ml^−1 fraction III; 0.5 μmol ml^−1 FMN; 0.5 μmol ml^−1 FAD; 1 and 10 μmol ml^−1 ammonium peroxydisulfate] in buffer (0.1 M MES-HEPES-sodium acetate, pH 5.0) to a total volume of 250 μl. The enzymatic reaction was initiated by addition of E-[9-^3H]coniferyl alcohol. Controls were performed in the presence of buffer alone.
After one hour incubation at 30° C. while shaking, the assay mixture was extracted with ethyl acetate (EtOAc, 500 μl) containing (±)-pinoresinols (7.5 μg), (±)-dehydrodiconiferyl alcohols (3.5 μg) and erythro/threo (±)-guaiacylglycerol 8-O-4′-coniferyl alcohol ethers (7.5 μg) as radiochemical carriers and ferulic acid (15.0 μg) as an internal standard. After centrifugation (13,800 g, 5 min), the EtOAc soluble components were removed and the extraction procedure repeated with EtOAc (500 μl). The EtOAc soluble components from each assay were combined, the solutions evaporated to dryness in vacuo, redissolved in methanol-water solution (1:1; 100 μl) with an aliquot (50 μl) thereof subjected to reversed-phase column chromatography (Waters, Nova-Pak C18, 150 mm by 3.8 mm). The elution conditions were as follows: acetonitrile/3% acetic acid in H2O (5:95) from 0 to 5 min, then linear gradients to ratios of 10:90 between 5 and 20 min, then to 20:80 between 20 and 45 min and finally to 50:50 between 45 and 60 min, at a flow rate of 8.8 ml min^−1 cm^−2.
Fractions corresponding to E-coniferyl alcohol, erythro/threo (±)-guaiacylglycerol 8-O-4′-coniferyl alcohol ethers, (±)-dehydrodiconiferyl alcohols and (±)-pinoresinols were individually collected, aliquots removed for liquid scintillation counting, and the remainder freeze-dried. Pinoresinol-containing fractions were redissolved in methanol (100 μl) and subjected to chiral column chromatography (Daicel, Chiralcel OD, 50 mm by 4.6 mm) with a solution of hexanes and ethanol (1:1) as the mobile phase (flow rate 3 ml min^−1 cm^−2), whereas dehydrodiconiferyl alcohol fractions were subjected to Chiralcel OF (250 mm by 4.6 mm) column chromatography eluted with a solution of hexanes and isopropanol (9:1) as the mobile phase (flow rate 2.4 ml min^−1 cm^−2), the radioactivity of the eluent being measured with a flow-through detector (Radiomatic, Model A120).
Ammonium peroxydisulfate readily undergoes homolytic cleavage (A. Usaitis, R. Makuska, Polymer 35:4896 (1994)) and is routinely used as an one-electron oxidant in acrylamide polymerization. Ammonium peroxydisulfate was first incubated with E-[9-^3H]coniferyl alcohol (4 μmol ml^−1, 29.3 kBq) for 6 hours using the E-coniferyl alcohol coupling assay procedure described above.

[3] = substrate: COc1cc(C[C@H]2CO[C@H](c3ccc(O)c(OC)c3)[C@H]2CO)ccc1O; assay: Initial velocity studies, reductase 35 kDa isoform; format: biochemical, Forsythia intermedia; conditions: other: 35 kDa form of the enzyme, NADPH 80 μM, pH 7.4, 30° C.
Experimental: Kinetic Parameters. […] The initial velocity studies were carried out individually utilizing the two isoforms of the enzyme, and individually employing both (+)-pinoresinol and (+)-lariciresinol as substrates. Initial velocity studies were performed in triplicate experiments, using 50 mM Bis-Tris Propane buffer, pH 7.4 containing 5 mM dithiothreitol, pure enzyme (after MonoQ anion-exchange chromatography), ten different substrate concentrations (between 8.8 and 160 μM) at a constant NADPH concentration (80 μM). Incubations were carried out at 30° C. for 10 min (within the linear kinetic range). Kinetic parameters were determined from Lineweaver-Burk plots.

[4] = substrate: COc1cc(C[C@H]2CO[C@H](c3ccc(O)c(OC)c3)[C@H]2CO)ccc1O; assay: purified protein, by the assay type; conditions: other: 36 kDa form of the enzyme, NADPH 80 μM, pH 7.4, 30° C.
[5] = dirigent protein present (770 pmol ml^−1)
[6] = ammonium peroxydisulfate 1 μmol ml^−1, dirigent protein absent
[7] = ammonium peroxydisulfate 1 μmol ml^−1, dirigent protein present (770 pmol ml^−1)
[8] = ammonium peroxydisulfate 10 μmol ml^−1, dirigent protein absent
[9] = ammonium peroxydisulfate 10 μmol ml^−1, dirigent protein present (770 pmol ml^−1)

In the case of `CC(Cc1ccc(O)c(O)c1)C(C)Cc1ccc(O)c(O)c1` (stereo not shown) [nordihydroguaiaretic acid], the “effectiveness against HIV (reverse transcriptase inhibitory activities)” value (HIV) is listed as “effective against HIV”.

In the case of `COc1cc(C[C@H]2C(=O)OC[C@@H]2Cc2ccc(OC)c(OC)c2)ccc1O` [(−)-arctigenin], the “effectiveness against HIV (reverse transcriptase inhibitory activities)” value (HIV) is listed as “effective against HIV”.

For `Cc1cc2nc3c(=O)[nH]c(=O)nc-3n(C[C@H](O)[C@H](O)[C@H](O)COP(=O)(O)O)c2cc1C` [FMN, flavin mononucleotide], the Vmax (E-coniferyl alcohol [1]) was 0.024 ± 0.001 mol s^−1 mol^−1 dirigent protein, the Km (E-coniferyl alcohol [1]; read-out: Formal Km) was 100 ± 10 µM and the “E-Sinapyl alcohol in dimer equivalents depleted” value (shortened to “E-Sinapyl alcohol”) (E-sinapyl alcohol; dirigent protein absent) was 570 ± 100 nmol/mL. The “Racemic (±)-syringaresinols” value (E-sinapyl alcohol; dirigent protein absent) was 290 ± 40 nmol/mL, the “E-Sinapyl alcohol” value (E-sinapyl alcohol; [5]) was 610 ± 110 nmol/mL and the “Racemic (±)-syringaresinols” value (E-sinapyl alcohol; [5]) was 340 ± 40 nmol/mL.

With `N.N.O=S(=O)(O)OOS(=O)(=O)O` [Ammonium peroxydisulfate] the “(+)-Pinoresinol” value (E-coniferyl alcohol [2]; [6]) was 0 nmol/mL, the “(±)-Dehydro-diconiferyl alcohols” value (E-coniferyl alcohol [2]; [6]) was 35 ± 2 nmol/mL and the “(±)-Guaiacyl-glycerol 8-O-4′-coniferyl alcohol ethers” value (E-coniferyl alcohol [2]; [6]) was 10 ± 1 nmol/mL. The “(±)-Pinoresinols” value (E-coniferyl alcohol [2]; [6]) was 16 ± 0 nmol/mL, the “E-Coniferyl alcohol in dimer equivalents depleted” value (“E-Coniferyl alcohol” below) (E-coniferyl alcohol [2]; [6]) was 200 ± 4 nmol/mL and the Total dimers (E-coniferyl alcohol [2]; [6]) was 61 ± 3 nmol/mL. For the same molecule, the “(+)-Pinoresinol” value (E-coniferyl alcohol [2]; [7]) was 130 ± 10 nmol/mL, the “(±)-Dehydro-diconiferyl alcohols” value (E-coniferyl alcohol [2]; [7]) was 13 ± 1 nmol/mL and the “(±)-Guaiacyl-glycerol 8-O-4′-coniferyl alcohol ethers” value (E-coniferyl alcohol [2]; [7]) was 6 ± 0 nmol/mL. The “(±)-Pinoresinols” value (E-coniferyl alcohol [2]; [7]) was 0 nmol/mL, the “E-Coniferyl alcohol” value (E-coniferyl alcohol [2]; [7]) was 250 ± 55 nmol/mL and the Total dimers (E-coniferyl alcohol [2]; [7]) was 149 ± 11 nmol/mL. The “(+)-Pinoresinol” value (E-coniferyl alcohol [2]; [8]) was 0 nmol/mL, the “(±)-Dehydro-diconiferyl alcohols” value (E-coniferyl alcohol [2]; [8]) was 250 ± 10 nmol/mL and the “(±)-Guaiacyl-glycerol 8-O-4′-coniferyl alcohol ethers” value (E-coniferyl alcohol [2]; [8]) was 90 ± 4 nmol/mL. The “(±)-Pinoresinols” value (E-coniferyl alcohol [2]; [8]) was 135 ± 4 nmol/mL, the “E-Coniferyl alcohol” value (E-coniferyl alcohol [2]; [8]) was 860 ± 30 nmol/mL and the Total dimers (E-coniferyl alcohol [2]; [8]) was 475 ± 17 nmol/mL. The “(+)-Pinoresinol” value (E-coniferyl alcohol [2]; [9]) was 450 ± 10 nmol/mL, the “(±)-Dehydro-diconiferyl alcohols” value (E-coniferyl alcohol [2]; [9]) was 90 ± 3 nmol/mL and the “(±)-Guaiacyl-glycerol 8-O-4′-coniferyl alcohol ethers” value (E-coniferyl alcohol [2]; [9]) was 30 ± 1 nmol/mL. For the same molecule, the “(±)-Pinoresinols” value (E-coniferyl alcohol [2]; [9]) was 0 nmol/mL, the “E-Coniferyl alcohol” value (E-coniferyl alcohol [2]; [9]) was 1030 ± 25 nmol/mL and the Total dimers (E-coniferyl alcohol [2]; [9]) was 570 ± 14 nmol/mL. For the same molecule, the “E-Sinapyl alcohol” value (E-sinapyl alcohol; dirigent protein absent) was 1400 ± 120 nmol/mL, the “Racemic (±)-syringaresinols” value (E-sinapyl alcohol; dirigent protein absent) was 1020 ± 40 nmol/mL and the “E-Sinapyl alcohol” value (E-sinapyl alcohol; [5]) was 1520 ± 10 nmol/mL. For the same molecule, the “Racemic (±)-syringaresinols” value (E-sinapyl alcohol; [5]) was 1060 ± 30 nmol/mL.

B1: 35 kDa form of (+)-pinoresinol/(+)-lariciresinol reductase (Forsythia x intermedia) (protein)
chain: GKSKVLIIGGTGYLGRRLVKASLAQGHETYILHRPEIGVDIDKVEMLISFKMQGAHLVSGSFKDFNSLVEAVKLVDVVISAISGVHIRSHQILLQLKLVEAIKEAGNVKRFLPSEFGMDPAKFMDTAMEPGKVTLDEKMVVRKAIEKAGIPFTYVSANCFAGYFLGGLCQFGKILPSRDFVIIHGDGNKKAIYNNEDDIATYAIKTINDPRTLNKTIYISPPKNILSQREVVQTWEKLIGKELQKITLSKEDFLASVKELEYAQQVGLSHYHDVNYQGCLTSFEIGDEEEASKLYPEVKYTSVEEYLKRYV
notes: pure enzyme (after MonoQ anion-exchange chromatography); from tissue; host or cells: Forsythia intermedia stems
For B1, the Km [3] was 121 ± 5.0 µM and the Vmax [3] was 25.2±0.7 μmol h^−1 mg^−1 of protein.

B2: 36 kDa form of (+)-pinoresinol/(+)-lariciresinol reductase (Forsythia x intermedia) (protein)
chain: B1 chain
With B2 the Km [4] was 123 ± 6.0 µM and the Vmax [4] was 29.9±0.7 μmol h^−1 mg^−1 of protein.
